Source: the METLIN SMRT retention time set (Domingo-Almenara et al. 2019)

Assay: gradient 5% acetonitrile 3 min, to 50% in 2 min, to 85% in 15 min, held 3 min, 100 µL/min
Conditions: column: Zorbax Extend-C18 2.1 x 50 mm; eluents: water / acetonitrile, 0.1% formic acid
Outline: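 Pure standards were analyzed in mixtures of ~100 molecules using HPLC coupled to a quadrupole time-of-flight mass spectrometer, in both positive and negative ionization mode. Separation used a Zorbax Extend-C18 column (2.1 × 50 mm, 1.8 μm) at 100 μL/min, with water and acetonitrile each containing 0.1% formic acid. Dead and dwell volumes were 40 μL and 900 μL, and data were collected over 3 months. Retention time was read from computationally picked adduct peaks, each inspected manually.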

Compound	RP-LC retention time
CN(Cc1cc(C(F)(F)F)ccc1Cl)C1CCc2nn(C)c(=O)n2CC1 (stereo not given)	610 s
Cc1cc(C)cc(NC(=O)Cn2cnc3c(sc4nc(-c5ccccc5)ccc43)c2=O)c1	1100 s
CCc1ccc(NC(=O)N2CCC(c3nc(C(=O)N(C)C)c(C)o3)CC2)cc1	769 s
O=C(NCCN1CCOCC1)c1ccc(-c2ccc(N3CCCCCC3)nc2)cc1	566 s
CCCOc1nc2ccccc2nc1N1CCCC(C(=O)Nc2ccc(OC)c(OC)c2)C1 (stereo not given)	1130 s
CN1C(=O)c2cc(C(=O)NCCc3ccccc3)nn2CC1(C)C(=O)NCc1ccc(F)cc1 (stereo not given)	768 s
CC(C)COC(=O)c1ccc(NC(=O)C2C3CCC(C3)C2C(=O)O)cc1 (stereo not given)	901 s
CCCn1nc(CNC(=O)c2cnccn2)c2ccccc21	765 s
COc1ccc(N2CC(c3noc(-c4ccc(C)cc4C)n3)CC2=O)cc1OC (stereo not given)	1000 s
O=C(NCc1ccccc1)c1ccc(NC(=O)C2CCC2)cc1N1CCOCC1	842 s
Cc1cc(C)cc(NS(=O)(=O)c2cc(-c3[nH]ncc3C(=O)N3CCOCC3)oc2C)c1	731 s
CN(C)c1ccc(CNC(=O)C2CCN(c3cncnc3N3CCOCC3)CC2)cc1	545 s
COc1ncccc1C(=O)NCc1nnc(C)o1	579 s
CC(C)(C)c1ccc(C(=O)N2CCN(c3nc(CN4CCOCC4)cs3)CC2)cc1	711 s
Cc1ccc(Nc2nc(-c3ccc(C)cc3)c(C)s2)cc1	1180 s
CCn1nnc2c(N3CCc4cc(OC)c(OC)cc4C3C)ncnc21 (stereo not given)	784 s
CCOC(=O)c1c(C)[nH]c(C)c1S(=O)(=O)N1CCC(C(=O)Nc2ccc(C)cn2)CC1	646 s
Cc1nnc2c(=O)n(CC(=O)NCc3ccccc3F)c3cccnc3n12	649 s
CC1(C(=O)NCc2ccc(F)cc2)CCCN(C(=O)NCc2ccco2)C1 (stereo not given)	765 s
CCC(CO)NCc1ccc(-c2ccccc2)o1 (stereo not given)	624 s
O=C(NCc1nnnn1C1CCCCC1)c1ccc(Br)o1	738 s
Cc1cc(F)cc2c(=O)c3c([nH]c12)CCN(CC(=O)Nc1cccc(Cl)c1)C3	646 s
CN(C)CCNC(=O)c1ccnc(-c2ccsc2)c1	573 s

Compound	RP-LC retention time
Cn1cnnc1SCCNC(=O)c1ccc(OCC(=O)C2CC2)cc1	603 s
Cc1ccc(CNC(=O)c2nc3cccnc3n(CC(C)C)c2=O)cc1	1010 s
Cc1nnn(C23CC4CC(CC(C(=O)N5CCN(c6ccccn6)CC5)(C4)C2)C3)n1	597 s
Cc1cc(NC(=O)C2CC2)nn1Cc1ccccc1	746 s
CCc1cccc(NC(=O)Cc2nc(C)c(C(=O)NCC(C)C)s2)c1	886 s
COc1ccc(S(=O)(=O)N2CCC(c3noc(-c4ccccn4)n3)C2)cc1 (stereo not given)	802 s
Cc1ccc(C(=O)NCCn2c(=O)n(Cc3ccc(F)cc3)c3cccnc32)s1	781 s
Cc1ccc(N2C(=O)C3N=NN(Cc4nc(-c5cccc(C)c5)no4)C3C2=O)cc1 (stereo not given)	1040 s
Cc1ccc(CNC(=O)c2ccc(-c3nnc4ccc(NC(=O)C5CCC5)cn34)cc2)cc1	869 s
Cc1ccc(-c2nnc(-c3nn(C)c4c3CN(S(=O)(=O)c3ccc(Cl)cc3)CC4)o2)cc1	1070 s
CCc1cccc(NC(=O)c2cn(CC)nc2S(=O)(=O)N2CCSCC2)c1	1080 s
CCOC(=O)c1cc(S(=O)(=O)N2CCCC2C(=O)NC2CCCCCC2)cn1C (stereo not given)	968 s
COC(=O)c1ccc2c(=O)n(-c3ccccc3)c(N3CCSCC3)nc2c1	1030 s
Cc1nnc(C2CCCCCN2S(=O)(=O)c2ccc(F)c(C)c2)o1 (stereo not given)	893 s
CN(C)C(CNC(=O)c1cc(-c2ccccc2)on1)c1cccs1 (stereo not given)	663 s
COC(=O)c1cnc(N2CCN(C3CCCCC3)CC2)c2ccccc12	683 s
C=CCN(Cc1nc(-c2cccc(C)c2)no1)C(=O)Nc1ccccc1OC	1120 s
CC(C)n1c(=O)oc2cc(-c3noc(-c4ccc5cc[nH]c5c4)n3)ccc21	1100 s
Cn1cc(S(=O)(=O)N2CCC(C(=O)NC3CCCCC3)CC2)cc1C(=O)N1CCCC1	736 s
O=C(Cc1ccsc1)N1CCC(c2nncn2-c2ccccc2)CC1	689 s
CN(C)c1ncncc1N1CCC(C(=O)N2CCN(c3ccc(F)cc3)CC2)CC1	641 s
CSc1ccc(-c2noc(Cn3ncn4nc(-c5cc(C)ccc5C)cc4c3=O)n2)cc1	1260 s
Cc1ccc(NC(=O)N2CCc3nc(-c4ccccc4)ncc3C2)cc1F	988 s

Compound	RP-LC retention time
CCN(C(=O)c1cc2c(s1)N(CC1CC1)CCCC2)C(C)C	1260 s
O=C(CN1C(=O)c2ccccc2C1=O)N1CCc2ccccc2C1	755 s
CCCN(CC1CCOC1)C(=O)Nc1ccccc1Cl (stereo not given)	846 s
CN(C)C(=O)c1cccnc1OC1CCN(C(=O)c2ccc(Br)o2)C1 (stereo not given)	663 s
CCCn1c(C)cnc1C1CN(C(=O)c2ccoc2)C1	573 s
O=C(c1cnn(-c2ccc([N+](=O)[O-])cc2)c1C1CCNCC1)N1CCN(c2ccccn2)CC1	563 s
COC(=O)C1=CN(C2CC2)c2cc(N3CCc4ccccc4C3)c(F)cc2S1(=O)=O	977 s
O=C(c1ccc2c(c1)OCO2)N1CCC2(CC1)CC(O)CCO2 (stereo not given)	590 s
COc1ccc(-c2nnc(-c3cccc(S(=O)(=O)N4CCCCC4)c3)o2)cc1OC	991 s
CCc1nc(-c2csc(S(=O)(=O)N3CCCC(C(=O)NCc4ccccc4Cl)C3)c2)no1 (stereo not given)	1050 s
COC(=O)c1c(C)c(C(=O)C(C)N(CC2CCCCC2)C(=O)c2ccccc2Cl)c(C)n1C (stereo not given)	1240 s
O=C1CCCc2cc(S(=O)(=O)N3CCN(c4cccc(Cl)c4)CC3)ccc2N1	928 s
COCCNC(=O)Cn1nc2cc(C)nc(-c3ccc(C(F)(F)F)cc3)n2c1=O	726 s
NP(=O)(Oc1c2occc2cc2ccc(=O)oc12)N(CCCl)CCCl (stereo not given)	738 s
Cc1ccccc1OCC(=O)N1CCN(C2=CC3=NCC(C)N3C=N2)CC1 (stereo not given)	644 s
Cc1sc2ccn(C)c(=O)c2c1C(=O)N1CCN(c2ccccn2)CC1	564 s
Cc1ncnc2c1CCC(=O)N2Cc1cccnc1	539 s
Cc1ccc(-c2nnc(Cc3nc(-c4ccccc4C)no3)o2)cc1	1100 s
OC[C@@H]1CN(Cc2cccc(OC(F)(F)F)c2)C[C@H]1c1ccncc1	570 s
Cc1ccc(-c2nc3cnccn3c2NCCC(=O)O)cc1	610 s
COc1ccc(N(CC(O)CNCCC(C)C)S(=O)(=O)c2ccc(C)cc2)cc1 (stereo not given)	620 s
CC1=C(c2cccc(Cl)c2)S(=O)(=O)N=C1N1CCCN(C(=O)NC(C)C)CC1	802 s
Cc1ccc(-c2cc3c(=O)n(Cc4noc(CN5CCN(C)CC5)n4)ccn3n2)cc1C	662 s

Compound	RP-LC retention time
O=C(Nc1cnc(-c2ccc(C(F)(F)F)cc2)nc1)C1CCOC1 (stereo not given)	888 s
CCc1noc(NC(C)=O)c1-c1ccc(C)c(S(=O)(=O)NCc2ccccc2)c1	836 s
O=C([C@@H]1C[C@H](Oc2cccnc2)CN1C(=O)C1CCC1)N1CCCC1	565 s
CCN1CCN(S(=O)(=O)c2c(C)nn(-c3ccc(-c4ccc(C)cc4)nn3)c2C)CC1	708 s
CCCn1ccc2sc(C)c(C(=O)NC(C)C)c2c1=O	720 s
CCCNC(=O)N1CCCCCC1CN1CCC(OC)CC1 (stereo not given)	604 s
O=C(Cn1cccc1-c1nnc(C2CCC2)o1)NCCc1ccc(Cl)cc1	766 s
CCCn1ncc(N2CCC(C(=O)NCc3cccs3)CC2)cc1=O	686 s
O=C(c1ccc(OC(F)(F)F)cc1)N1CCN(CCn2cccn2)CC1	582 s
COc1cccc(-c2noc(Cn3ccn(-c4ccccc4OC)c(=O)c3=O)n2)c1	810 s
Cc1c(Cl)cccc1NC(=O)Cn1c(=O)cc(-c2nc(C(C)C)no2)c2ccccc21	1080 s
COc1ccc(N2CC(c3noc(-c4ccc(F)cc4)n3)CC2=O)cc1OC (stereo not given)	856 s
CC(C)c1ccc(NC(=O)C2CCN(S(=O)(=O)c3cn(C(C)C)cn3)CC2)cc1	900 s
COc1ccccc1-c1ccc(=O)n(Cc2nc(-c3ccc(F)cc3)no2)n1	995 s
COc1ccc(NC(=O)CCc2c(C)nn(-c3cc(N(C)C)ncn3)c2C)cc1Cl	822 s
COc1cccc(-n2c(=O)c(C(=O)Nc3cc(F)cc(F)c3)c(O)c3cccnc32)c1	1210 s
CCc1ccccc1NC(=O)CN1C(=O)NC2(CCCCC2)C1=O	761 s
O=C(Cn1cnc2ccccc2c1=O)N1CCOCC1	590 s
CC(=O)Nc1cccc(N2CC(C(=O)NCc3cccc(Br)c3)CC2=O)c1 (stereo not given)	703 s
COc1cccc(C(=O)Nc2nnc(SC)s2)c1	755 s
O=C(NCc1ccc2c(c1)OCO2)C1CCN(C(=O)C2Sc3ccccc3NC2=O)CC1 (stereo not given)	703 s
